Source: patent publication US20240116985A1, “STAPLED PEPTIDES AND METHODS THEREOF” (priority 2020, published 2024)
Values after ≈ are worked out from the molar mass of the structure shown. Where two headings read alike, the source gives them in different places.

Assays:
[1] = CHI Log D procedure; format: physicochemical; details: for CHI Log D: pH 7.4; for chromatographic logD: pH 7.4, CHI Log D
[2] = target: T1, full-length beta-Catenin (Uniprot ID P35222) (Homo sapiens, UniProt P35222); assay: Fluorescence polarization IC50 (beta-catenin / 5FAM-TCF4 10-53 competition); format: binding
T1 construct: 10 nM full-length beta-Catenin (Uniprot ID P35222)
T1 sequence (P35222 1-781): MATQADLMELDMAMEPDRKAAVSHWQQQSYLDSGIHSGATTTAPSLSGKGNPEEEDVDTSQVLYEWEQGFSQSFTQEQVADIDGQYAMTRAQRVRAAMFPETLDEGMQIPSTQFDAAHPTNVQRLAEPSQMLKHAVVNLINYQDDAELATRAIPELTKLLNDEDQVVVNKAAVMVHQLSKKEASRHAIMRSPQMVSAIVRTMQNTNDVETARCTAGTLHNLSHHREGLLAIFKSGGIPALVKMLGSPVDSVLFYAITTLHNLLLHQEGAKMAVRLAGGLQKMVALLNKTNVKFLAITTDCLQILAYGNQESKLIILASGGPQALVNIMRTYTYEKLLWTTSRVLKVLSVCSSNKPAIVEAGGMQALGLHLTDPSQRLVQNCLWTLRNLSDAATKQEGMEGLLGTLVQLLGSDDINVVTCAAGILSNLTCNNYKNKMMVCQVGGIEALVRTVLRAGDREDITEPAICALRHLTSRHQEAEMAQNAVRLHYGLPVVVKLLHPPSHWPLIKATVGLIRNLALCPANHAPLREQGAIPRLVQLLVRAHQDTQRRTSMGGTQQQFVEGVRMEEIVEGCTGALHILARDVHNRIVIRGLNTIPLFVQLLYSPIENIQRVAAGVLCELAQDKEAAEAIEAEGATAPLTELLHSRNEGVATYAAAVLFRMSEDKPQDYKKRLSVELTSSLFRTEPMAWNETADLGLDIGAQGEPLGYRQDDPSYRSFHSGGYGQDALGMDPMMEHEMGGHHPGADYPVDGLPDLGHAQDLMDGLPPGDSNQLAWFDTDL

[3] = Solubility in PBS; format: physicochemical
Procedure, shortened: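 PBS sample ultracentrifuged; supernatant run on HPLC vs. 50 μM peptide in DMSO standard. Solubility = (PBS peak area / DMSO peak area) × 50 uM.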

[4] = fluorescence polarization, read-out: beta-Catenin FP IC50
[5] = Table E2-1, read-out: beta-Catenin FP IC50
[6] = fluorescence polarization, beta-catenin, read-out: FP EC50

CHI Log D [1]	IC50 ([2]; read-out: FP EC50)	Solubility [3]	chromatographic logD [1]	IC50 [2, 4]	Solubility ([3]; Solubility (uM))	Structure (SMILES)	other results
–	–	–	2	90 nM	31 µM (≈ 57.4 µg/mL)	CC(=O)N1CCC[C@]12CC=CCCCC1(CCCC=CCCCCCC[C@@](C)(C(=O)N[C@@H](Cc3ccccc3)C(=O)N[C@@H](Cc3csc4ccccc34)C(=O)N[C@@H](CCC(N)=O)C(N)=O)NC(=O)[C@H](CCC(N)=O)NC(=O)[C@H](Cc3ccccc3)NC(=O)[C@H](C)NC(=O)[C@H](C)NC(=O)[C@H](Cc3nn[nH]n3)NC(=O)[C@H](CC(=O)O)NC1=O)NC(=O)[C@H](C)NC(=O)[C@H](CC(=O)O)NC2=O (stereo partly drawn) [I-413, Ac-PL3-Asp-Ala-B5-Asp-tetz-Ala-Ala-Phe-Gln-S8-Phe-BztA-Gln-NH2]	–
2.017	–	44 µM (≈ 80.8 µg/mL)	–	–	–	CC(=O)N1CCC[C@]12CC=CCCCC1(CCCC=CCCCCCC[C@@](C)(C(=O)N[C@@H](Cc3ccccc3)C(=O)N[C@@H](Cc3csc4ccccc34)C(=O)N[C@@H](Cc3c[nH]cn3)C(N)=O)NC(=O)[C@H](CCC(N)=O)NC(=O)[C@H](Cc3ccccc3)NC(=O)[C@H](C)NC(=O)[C@H](C)NC(=O)[C@H](CC(=O)O)NC(=O)[C@H](CC(=O)O)NC1=O)NC(=O)[C@H](C)NC(=O)[C@H](CC(=O)O)NC2=O (stereo partly drawn) [I-360, Ac-PL3-Asp-Ala-B5-Asp-Asp-Ala-Ala-Phe-Gln-S8-Phe-BztA-His-NH2]	IC50 [2, 5]: 146 nM; IC50 [2, 6]: 146 nM
–	–	–	2.17	–	44 µM (≈ 79.3 µg/mL)	CC(=O)N1CCC[C@]12CC=CCCCC1(CCCC=CCCCCCC[C@@](C)(C(=O)N[C@@H](Cc3cccc(F)c3)C(=O)N[C@@H](Cc3csc4ccccc34)C(=O)N[C@@H](CCC(N)=O)C(N)=O)NC(=O)[C@H](C)NC(=O)[C@H](Cc3ccccc3)NC(=O)[C@H](C)NC(=O)[C@H](C)NC(=O)[C@H](CCC(=O)O)NC(=O)[C@H](CC(=O)O)NC1=O)NC(=O)[C@H](C)NC(=O)[C@H](CC(=O)O)NC2=O (stereo partly drawn) [I-372, Ac-PL3-Asp-Ala-B5-Asp-Glu-Ala-Ala-Phe-Ala-S8-3FF-BztA-Gln-NH2]	IC50 [2, 5]: 2090 nM
2.079	192 nM	47 µM (≈ 85.3 µg/mL)	–	192 nM	–	CC(=O)N1CCC[C@]12CC=CCCCC1(CCCC=CCCCCCC[C@@](C)(C(=O)N[C@@H](Cc3ccccc3)C(=O)N[C@@H](Cc3csc4ccccc34)C(=O)N[C@H](C(N)=O)[C@@H](C)O)NC(=O)[C@H](CCC(N)=O)NC(=O)[C@H](Cc3ccccc3)NC(=O)[C@H](C)NC(=O)[C@H](C)NC(=O)[C@H](CCC(=O)O)NC(=O)[C@H](CC(=O)O)NC1=O)NC(=O)[C@H](C)NC(=O)[C@H](CC(=O)O)NC2=O (stereo partly drawn) [I-507, Ac-PL3-Asp-Ala-B5-Asp-Glu-Ala-Ala-Phe-Gln-S8-Phe-BztA-Thr-NH2]	–
2.052	53 nM	49 µM (≈ 88.9 µg/mL)	–	53 nM	–	CC(=O)N1CCC[C@]12CC=CCCCC1(CCCC=CCCCCCC[C@@](C)(C(=O)N[C@@H](Cc3ccccc3)C(=O)N[C@@H](Cc3csc4ccccc34)C(=O)N[C@@H](CCO)C(N)=O)NC(=O)[C@H](CCC(N)=O)NC(=O)[C@H](Cc3ccccc3)NC(=O)[C@H](C)NC(=O)[C@H](C)NC(=O)[C@H](CCC(=O)O)NC(=O)[C@H](CC(=O)O)NC1=O)NC(=O)[C@H](C)NC(=O)[C@H](CC(=O)O)NC2=O (stereo partly drawn) [I-492, Ac-PL3-Asp-Ala-B5-Asp-Glu-Ala-Ala-Phe-Gln-S8-Phe-BztA-Hse-NH2]	–

Second part, the compound before the results:

Structure (SMILES)	CHI Log D [1]	IC50 ([2]; read-out: FP EC50)	Solubility [3]	chromatographic logD [1]	IC50 [2, 4]	Solubility ([3]; Solubility (uM))	other results
CC(=O)N1CCC[C@]12CC=CCCCC1(CCCC=CCCCCCC[C@@](C)(C(=O)N[C@@H](Cc3ccccc3)C(=O)N[C@@H](Cc3csc4ccccc34)C(=O)N[C@@H](C(N)=O)[C@H](C)O)NC(=O)[C@H](CC(N)=O)NC(=O)[C@H](Cc3ccccc3)NC(=O)[C@H](C)NC(=O)[C@H](C)NC(=O)[C@H](CCC(=O)O)NC(=O)[C@H](CC(=O)O)NC1=O)NC(=O)[C@H](CC(C)C)NC(=O)[C@H](CC(=O)O)NC2=O (stereo partly drawn) [I-755, Ac-PL3-Asp-Leu-B5-Asp-Glu-Ala-Ala-Phe-Asn-S8-Phe-BztA-dThr-NH2]	2.684	88 nM	47 µM (≈ 86.6 µg/mL)	–	–	–	IC50 ([2]; read-out: beta-Catenin FP IC50): 88 nM
CC(=O)N1CCC[C@]12CC=CCCCC1(CCCC=CCCCCCC[C@@](C)(C(=O)N[C@@H](Cc3cccc(F)c3)C(=O)N[C@@H](Cc3c[nH]c4ccccc34)C(=O)N[C@@H](CCC(N)=O)C(N)=O)NC(=O)[C@H](CCC(N)=O)NC(=O)[C@H](Cc3cccs3)NC(=O)[C@H](C)NC(=O)[C@H](C)NC(=O)[C@H](CCC(=O)O)NC(=O)[C@H](CC(=O)O)NC1=O)NC(=O)[C@H](C)NC(=O)[C@H](CC(=O)O)NC2=O (stereo partly drawn) [I-450, Ac-PL3-Asp-Ala-B5-Asp-Glu-Ala-Ala-2Thi-Gln-S8-3FF-Trp-Gln-NH2]	–	–	50 µM (≈ 92.4 µg/mL)	1.88	3720 nM	–	–
CC(=O)N1CCC[C@]12CC=CCCCC1(CCCC=CCCCOC(=O)N3CC[C@@](C(=O)N[C@@H](Cc4ccsc4)C(=O)N[C@@H](Cc4c[nH]c5ccc(Cl)cc45)C(=O)N[C@@H](Cc4c[nH]cn4)C(N)=O)(C3)NC(=O)[C@H](CC(N)=O)NC(=O)[C@H](Cc3ccccc3)NC(=O)[C@H](C)NC(=O)[C@H](C)NC(=O)[C@H](CC(=O)O)NC(=O)[C@H](CC(=O)O)NC1=O)NC(=O)[C@H](CC(C)(C)C)NC(=O)[C@H](CC(=O)O)NC2=O (stereo partly drawn) [I-791, Ac-PL3-Asp-Npg-B5-Asp-Asp-Ala-Ala-Phe-Asn-PyrS2-3Thi-5C1W-His-NH2]	–	–	–	2.05	–	48 µM (≈ 93.3 µg/mL)	IC50 ([2]; read-out: beta-Catenin FP IC50): 310 nM
CC[C@H](C)[C@@H]1NC(=O)[C@H](CC(=O)O)NC(=O)[C@]2(CC=CCCCC3(CCCC=CCCCCCC[C@@](C)(C(=O)N[C@@H](Cc4ccccc4)C(=O)N[C@@H](Cc4csc5ccccc45)C(=O)N[C@@H](CCC(N)=O)C(N)=O)NC(=O)[C@H](CCC(N)=O)NC(=O)[C@H](Cc4ccccc4)NC(=O)[C@H](C)NC(=O)[C@H](C)NC(=O)[C@H](CCCNC(N)=O)NC(=O)[C@H](CC(=O)O)NC3=O)NC1=O)CCCN2C(C)=O (stereo partly drawn) [I-604, Ac-PL3-Asp-Ile-B5-Asp-Cit-Ala-Ala-Phe-Gln-S8-Phe-BztA-Gln-NH2]	2.609	692 nM	10 µM (≈ 19.1 µg/mL)	–	692 nM	–	–
CC[C@H](C)[C@@H]1NC(=O)[C@H](CC(=O)O)NC(=O)[C@]2(CC=CCCCC3(CCCC=CCCCCCC[C@@](C)(C(=O)N[C@@H](Cc4ccccc4)C(=O)N[C@@H](Cc4csc5ccccc45)C(=O)N[C@@H](CCC(N)=O)C(N)=O)NC(=O)[C@H](CCC(N)=O)NC(=O)[C@H](Cc4cccc(OC)c4)NC(=O)[C@H](C)NC(=O)[C@H](C)NC(=O)[C@H](CCC(=O)O)NC(=O)[C@H](CC(=O)O)NC3=O)NC1=O)CCCN2C(C)=O (stereo partly drawn) [I-724, Ac-PL3-Asp-Ile-B5-Asp-Glu-Ala-Ala-3OMeF-Gln-S8-Phe-BztA-Gln-NH2]	–	–	–	2.42	114 nM	34 µM (≈ 65 µg/mL)	–
CC[C@H](C)[C@@H]1NC(=O)[C@H](CC(=O)O)NC(=O)[C@]2(CC=CCCCC3(CCCC=CCCCCCC[C@@](C)(C(=O)N[C@@H](Cc4ccccc4)C(=O)N[C@@H](Cc4csc5ccccc45)C(=O)N[C@@H](Cc4ccc(O)cc4)C(N)=O)NC(=O)[C@H](CCC(N)=O)NC(=O)[C@H](Cc4ccccc4)NC(=O)[C@H](C)NC(=O)[C@H](C)NC(=O)[C@H](CCC(=O)O)NC(=O)[C@H](CC(=O)O)NC3=O)NC1=O)CCCN2C(C)=O (stereo partly drawn) [I-636, Ac-PL3-Asp-Ile-B5-Asp-Glu-Ala-Ala-Phe-Gln-S8-Phe-BztA-Tyr-NH2]	–	–	50 µM (≈ 95.9 µg/mL)	2.57	198 nM	–	–
CC(=O)N1CCC[C@]12CC=CCCCC1(CCCC=CCCCCCC[C@@](C)(C(=O)N[C@@H](Cc3ccccc3)C(=O)N[C@@H](Cc3c[nH]c4ccccc34)C(=O)N[C@@H](CCC(N)=O)C(N)=O)NC(=O)[C@H](C(C)C)NC(=O)C(Cc3cncn3C)NC(=O)[C@H](C)NC(=O)[C@H](C)NC(=O)[C@H](CC(=O)O)NC(=O)[C@H](CC(=O)O)NC1=O)NC(=O)[C@H](C)NC(=O)[C@H](CC(=O)O)NC2=O (single isomer, unassigned) [I-331, Ac-PL3-Asp-Ala-B5-Asp-Asp-Ala-Ala-3meH-Val-S8-Phe-Trp-Gln-NH2]	–	–	–	2.02	–	–	IC50 [2, 5]: 5000 nM; solubility at 15 min ([3]; Solubility (uM)): 41 µM (≈ 73.2 µg/mL)
CC(=O)N1CCC[C@]12CC=CCCCC1(CCCC=CCCCCCC[C@@](C)(C(=O)N[C@@H](Cc3ccccc3)C(=O)N[C@@H](Cc3csc4ccccc34)C(=O)N[C@@H](CCC(N)=O)C(N)=O)NC(=O)[C@H](C(C)C)NC(=O)[C@H](Cc3cccc(F)c3F)NC(=O)[C@H](C)NC(=O)[C@H](C)NC(=O)[C@H](CCC(=O)O)NC(=O)[C@H](CC(=O)O)NC1=O)NC(=O)[C@H](C)NC(=O)[C@H](CC(=O)O)NC2=O (stereo partly drawn) [I-391, Ac-PL3-Asp-Ala-B5-Asp-Glu-Ala-Ala-23FF-Val-S8-Phe-BztA-Gln-NH2]	2.585	–	10 µM (≈ 18.5 µg/mL)	–	1910 nM	–	IC50 [2, 6]: 1910 nM
